Tests used:
HeLa cells = assay: Cell imaging of CO2; type: cell-based; details: 5 μM for 10 minutes; ambient air or 5% CO2; imaged at different time points
Method: The selectivity of the compound (I4) was evaluated against common analytes in cells. HeLa cells were treated with compound (I4) [5 μM] for 10 minutes, followed by washing thrice to remove excess sensor. Then, as an exogenous CO2 model, the cells were incubated under ambient air or at 5% CO2 and imaged at different time points. […] In addition, time-dependent response of cells that were incubated under ambient conditions was attributed to basal levels of CO2 production by metabolic processes.

[1] = Reaction kinetics by fluorescence at varying concentrations of sensor or CO2; details: dependence for both (I1) and carbon dioxide
Text: The reaction kinetics were investigated with the same compounds of Formulae (I1) and (I1b) by measuring fluorescence at different time points using varying concentrations of either (I1) or carbon dioxide.

Row | SMILES | fluorescent signal in cells (HeLa cells) | reaction order [1]
1 | CN(C)c1ccc2c(NCc3ccccc3N=P(c3ccccc3)(c3ccccc3)c3ccccc3)c3ccc(=[N+](C)C)cc-3oc2c1 [(I4)] | significant time-dependent fluorescent increase in the red channel and decrease in the green channel | 
2 | CCN(CC)c1ccc2c(NCc3ccccc3N=P(c3ccccc3)(c3ccccc3)c3ccccc3)cc(=O)oc2c1 [Compound (I1)] |  | first-order dependence
